1 compound from ChEMBL document CHEMBL1148920, “Ingenamine G and cyclostellettamines G-I, K, and L from the new Brazilian species of marine sponge Pachychalina sp” (2004) can be followed below.

What all share (assay type): functional
One assay deals with HCT-8. Nature of the assay: Cytotoxicity against human HCT8 cells.
In a further assay the test system is B16. Nature of the assay: Cytotoxicity against mouse B16 cells.
For a further assay, the system named is MCF7. Nature of the assay: Cytotoxicity against human MCF7 cells.
In a further assay the test system is Staphylococcus aureus. Nature of the assay: Antibacterial activity against Staphylococcus aureus ATCC 25923.
For a further assay, the system named is Escherichia coli. Nature of the assay: Antibacterial activity against Escherichia coli ATCC 25922.
Assay [1] relates to Mycobacterium tuberculosis. Briefly: Antimycobacterial activity against Mycobacterium tuberculosis H37Rv.

In the case of `OC1/C=C\C=C/CCN2CC3C=C4CCCCCCCCCC/C=C\CCN5CCC3C(C1)(C5)C42` (stereo unspecified) [INGENAMINE G], the Activity came out at 8.6 µg/mL with HCT-8; 9.8 µg/mL in the assay on B16; 11.3 µg/mL in the assay on MCF7; 105 µg/mL in the assay on Staphylococcus aureus; 75 µg/mL in the assay with Escherichia coli; 8 µg/mL in assay [1].
